Assay results published in the supplement of paper PMC10307832.

Experiments:
Test in all cases: relative viability (nuclei count vs DMSO), 5 days (fraction); higher = more cells survive
[1] = compound: N#CC1(c2ccc(NC(=O)c3cccnc3NCc3ccncc3)cc2)CCCC1 [Apatinib] + CC(=O)c1c(C)c2cnc(Nc3ccc(N4CCNCC4)cn3)nc2n(C2CCCC2)c1=O [Palbociclib] (partner 0.5 µM)
How it was run: (§1)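 One day after seeding in 1536-well plates, lung cancer cell lines were dosed by pin tool. Dosing was either single-drug or a fixed anchor-drug dose plus five library-drug doses (not always all listed) in √10 steps. After 5 days, nuclei were stained in one fix-and-stain step and counted on 4× images, and relative viability is the nuclei count of treated wells over that of vehicle wells, given as the median of duplicate plates.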

[2] = compound: CN(C)C(=N)NC(=N)N [Metformin] + CCNC(=O)c1noc(-c2cc(C(C)C)c(O)cc2O)c1-c1ccc(CN2CCOCC2)cc1 [Luminespib] (partner 0.01 µM)
How it was run: as §1

[3] = compound: CN(C)C(=N)NC(=N)N [Metformin] + NC(=O)Nc1cc(-c2cccc(F)c2)sc1C(=O)N[C@H]1CCCNC1 [AZD7762] (partner 0.2 µM)
How it was run: as §1

[4] = compound: CN(C)C(=N)NC(=N)N [Metformin] + CC(=O)c1c(C)c2cnc(Nc3ccc(N4CCNCC4)cn3)nc2n(C2CCCC2)c1=O [Palbociclib] (partner 0.5 µM)
How it was run: as §1

Row | Cell Line | relative viability ([1]; first compound 0.08 µM) | relative viability ([1]; first compound 0.253 µM) | relative viability ([1]; first compound 0.8 µM) | relative viability ([1]; first compound 2.53 µM) | relative viability ([1]; first compound 8 µM) | relative viability ([2]; first compound 10 µM) | relative viability ([2]; first compound 31.62 µM) | relative viability ([2]; first compound 100 µM) | relative viability ([2]; first compound 316.23 µM) | relative viability ([2]; first compound 1000 µM) | relative viability ([3]; first compound 10 µM) | relative viability ([3]; first compound 31.62 µM) | relative viability ([3]; first compound 100 µM) | relative viability ([3]; first compound 316.23 µM) | relative viability ([3]; first compound 1000 µM) | relative viability ([4]; first compound 10 µM) | relative viability ([4]; first compound 31.62 µM) | relative viability ([4]; first compound 100 µM) | relative viability ([4]; first compound 316.23 µM) | relative viability ([4]; first compound 1000 µM)
1 | LU99A | 0.505 | 0.489 | 0.383 | 0.339 | 0.328 | 0.223 | 0.233 | 0.238 | 0.269 | 0.252 | 0.244 | 0.249 | 0.252 | 0.223 | 0.383 | 0.387 | 0.352 | 0.347 | 0.35 | 0.31
2 | HCC-827 | 0.444 | 0.444 | 0.402 | 0.391 | 0.357 |  | 0.843 | 0.843 | 0.524 | 0.736 | 0.245 | 0.174 | 0.257 | 0.217 | 0.36 | 0.452 | 0.501 | 0.481 | 0.469 | 0.615
3 | BEN | 0.521 | 0.453 | 0.466 | 0.478 | 0.407 | 0.461 | 0.475 | 0.833 | 0.361 | 0.705 | 1.08 | 1.12 | 0.967 | 0.957 | 0.72 | 0.503 | 0.529 | 0.523 | 0.436 | 0.456
4 | NCI-H1755 | 0.462 | 0.464 | 0.434 | 0.404 | 0.422 | 0.504 | 0.565 | 0.475 | 0.419 | 0.418 | 0.361 | 0.379 | 0.408 | 0.345 | 0.408 | 0.411 | 0.397 | 0.43 | 0.433 | 0.416
5 | LOU-NH91 | 0.549 | 0.508 | 0.526 | 0.58 | 0.531 | 0.343 | 0.404 | 0.316 | 0.344 | 0.376 | 0.743 | 0.668 | 0.716 | 0.681 | 0.718 | 0.524 | 0.523 | 0.441 | 0.518 | 0.517
6 | LC-2-ad | 0.476 | 0.501 | 0.516 | 0.436 | 0.356 |  | 0.858 | 0.934 | 0.683 | 0.647 |  | 0.885 | 0.906 | 0.811 | 0.87 |  | 0.341 | 0.313 | 0.27 | 0.347
7 | ChaGo-K-1 | 0.993 | 1.04 | 0.908 | 0.9 | 0.772 | 0.599 | 0.751 | 0.67 | 0.634 | 0.696 | 0.788 | 0.956 | 0.938 | 0.849 | 0.862 | 0.92 | 0.897 | 0.957 | 0.716 | 0.967
8 | NCI-H2126 | 0.324 | 0.352 | 0.355 | 0.322 | 0.34 | 0.647 | 0.956 | 0.803 | 0.571 | 0.496 | 0.953 | 0.963 | 0.916 | 0.92 | 0.935 | 0.399 | 0.349 | 0.307 | 0.322 | 0.328
9 | EMC-BAC-2 | 0.518 | 0.536 | 0.506 | 0.449 | 0.412 | 1.23 | 1.24 | 1.21 | 1.19 | 1.33 | 1.14 | 1.26 | 1.17 | 1.22 | 1 | 0.499 | 0.547 | 0.502 | 0.496 | 0.423
10 | NCI-H647 | 0.516 | 0.451 | 0.336 | 0.384 | 0.303 | 0.187 | 0.154 | 0.278 | 0.16 | 0.113 | 0.414 | 0.467 | 0.495 | 0.418 | 0.513 | 0.222 | 0.436 | 0.555 | 0.382 | 0.417
11 | NCI-H1944 | 0.362 | 0.327 | 0.272 | 0.325 | 0.255 | 0.815 | 0.902 | 0.895 | 0.725 | 0.804 | 0.406 | 0.586 | 0.48 | 0.626 | 0.527 | 0.386 | 0.44 | 0.404 | 0.344 | 0.404
12 | NCI-H1395 | 0.632 | 0.687 | 0.644 | 0.585 | 0.602 | 0.706 | 0.697 | 0.826 | 0.834 | 0.773 | 0.415 | 0.389 | 0.41 | 0.428 | 0.41 | 0.504 | 0.716 | 0.627 | 0.508 | 0.448
13 | EPLC-272H | 0.284 | 0.341 | 0.359 | 0.336 | 0.313 | 0.398 | 0.335 | 0.27 | 0.25 | 0.413 | 0.23 | 0.351 | 0.345 | 0.334 | 0.259 | 0.294 | 0.32 | 0.339 | 0.311 | 0.391
14 | NCI-H2087 | 0.231 | 0.256 | 0.248 | 0.266 | 0.178 |  | 0.293 | 0.225 | 0.223 | 0.157 | 1.3 | 1.21 | 1.12 | 1.11 | 1.39 | 0.263 | 0.226 | 0.268 | 0.218 | 0.235
15 | PC-3 [JPC-3] |  | 0.555 | 0.557 | 0.516 | 0.53 | 0.686 | 0.68 | 0.73 | 0.663 | 0.74 | 0.916 | 1.12 |  | 0.798 | 0.651 | 0.444 | 0.466 |  | 0.46 | 0.503
